Read-outs that look alike come from different tables or passages of the source.
Experiments:
468 kinases [1] = type: binding; conditions: concentration of 100 nM
468 kinases [2] = conditions: concentration of 100 nM; cited from earlier work

Structure (SMILES)	number of wild-type kinases inhibited (percent control <35%) (468 kinases [1])	number of wild-type kinases inhibited (percent control <35%) (468 kinases [2])
C1=C/COCc2cc(ccc2OCCN2CCCC2)Nc2nccc(n2)-c2cccc(c2)COC/1 [Pacritinib]	55	–
Cc1cnc(Nc2ccc(OCCN3CCCC3)cc2)nc1Nc1cccc(S(=O)(=O)NC(C)(C)C)c1 [Fedratinib]	–	34

Source: publication PMC12504684 (Communications Chemistry, 2025)
